Legend:
[1] = test system: Summer barley; assay: Example C: Herbicidal post-emergence action, use of safeners (crop plant damage); assay type: in vivo; conditions: for Summer barley observed (%): no safener; for Summer barley observed (%), 10 days after application / Summer barley observed (%), 28 days after application: greenhouse container trial;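 as to Summer barley observed (%), 10 days after application: 100% means plants died and 0% means like untreated controls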;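 as to Summer barley observed (%), 28 days after application: 100% means plants died and 0% means like untreated controls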
Description: (§1) Herbicidal Post-Emergence Action
(§2) Seeds of monocotylos and dicotylos weed and crop plants are placed into sandy lawn in wood fibre pots or in plastic pots, covered with soil and cultivated in a greenhouse, during the vegetation period also outdoors outside of the greenhouse, under good growth conditions. Two to three weeks after sowing, the test plants are treated at the one- to three-leaf stage. The test compounds, formulated as wettable powders (WP) or liquid (EC), are, in the various dosages at a water application rate of 300 l/ha (converted), with wetting agent (0.2 to 0.3%) added, sprayed onto the plants and the surface of the soil. […]
(§3) If it is additionally to be tested as to whether safeners can improve the plant compatibility of test substances in the case of crop plants, the following options are used for applying the safener: • seeds of the crop plants are, before sowing, dressed with safener substance (the amount of safener stated in percent, based on the weight of the seed) • before the application of the test substances, the crop plants are sprayed with the safener at a certain application rate per hectare (usually 1 day before the application of the test substances) • the safener is applied together with the test substance as a tank mix (the amount of safener is stated in g/ha or as a ratio, based on the herbicide).
(§4) By comparing the effect of test substances on crop plants without or with safener treatment, it is possible to assess the effect of the safener substance.
(§5) Container trials in the greenhouse, treatment with safener 1 day prior to herbicide application

[2] = test system: Summer wheat; assay: as above; assay type: in vivo; conditions: for Summer wheat observed (%), 10 days after application / Summer wheat observed (%), 28 days after application: greenhouse container trial; for Summer wheat observed (%): no safener;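 as to Summer wheat observed (%), 10 days after application: 100% means plants died and 0% means like untreated controls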;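 as to Summer wheat observed (%), 28 days after application: 100% means plants died and 0% means like untreated controls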
Description: as §1, §2, §3, §4, §5

[3] = logP determination by HPLC on a reverse-phase column (C 18), EEC Directive 79/831 Annex V.A8; assay type: physicochemical; conditions: HPLC reverse-phase C 18, 43° C., acidic range (pH 2.3), 0.1% aqueous phosphoric acid/acetonitrile; for chromatographic logP: reverse-phase HPLC column (C 18)
Description: The logP values given in the table were determined in accordance with EEC Directive 79/831 Annex V.A8 by HPLC (High Performance Liquid Chromatography) on a reverse-phase column (C 18). Temperature: 43° C.
Mobile phases for the determination in the acidic range (pH 2.3): 0.1% aqueous phosphoric acid, acetonitrile; linear gradient from 10% acetonitrile to 90% acetonitrile.
Calibration was carried out using unbranched alkan-2-ones (having 3 to 16 carbon atoms) with known logP values (determination of the logP values by retention times using linear interpolation between two successive alkanones).

[4] = test system: green peach aphid (Myzus persicae); assay: Example M: Myzus persicae test, activity increase by ammonium/phosphonium salts in combination with penetrants; assay type: in vivo; conditions: for Kill (%) after 6 d +AS 1000 ppm: + ammonium sulphate 1000 ppm; for Kill (%) after 6 d +RME 1000 ppm: + rapeseed oil methyl ester 1000 ppm; for Kill (%) after 6 d: no additive
Description: Activity Increase by Ammonia/Phosphonium Salts in Combination with Penetrants
(§6) Solvent: 7 parts by weight of dimethylformamide
(§7) Emulsifier: 2 parts by weight of alkylaryl polyglycol ether
(§8) To produce a suitable preparation of active compound, 1 part by weight of active compound is mixed with the stated amounts of solvent and emulsifier and the concentrate is diluted with emulsifier-containing water to the desired concentration. For the application with penetrants (rapeseed oil methyl ester 500 EW), ammonium or phosphonium salts or ammonium salts and penetrants (rapeseed oil methyl ester 500 EW), these are in each case added in a concentration of 1000 ppm to the spray liquor.
Paprika plants (Capsicum annuum) which are heavily infested by the green peach aphid (Myzus persicae) are treated by being sprayed to run off point with the preparation of active compound at the desired concentration.
After the desired period of time, the kill in % is determined. 100% means that all animals have been killed; 0% means that none of the animals have been killed.
(§9) In this test, for example, the following compounds of the Preparation Examples show good efficacy: see table

[5] = test system: cotton aphid (Aphis gossypii); assay: Example N: Aphis gossypii test, with ammonium/phosphonium salts and penetrants; assay type: in vivo; conditions: 20 ppm
Description: as §6, §7, §8
Cotton plants (Gossypium hirsutum) which are heavily infested by the cotton aphid (Aphis gossypii) are treated by being sprayed to run off point with the preparation of active compound at the desired concentration.
After the desired period of time, the kill in % is determined. 100% means that all aphids have been killed; 0% means that none of the aphids have been killed.
as §9

[6] = 10 days after application, 12.5 g of a.i./ha
[7] = 10 days after application, 25 g of a.i./ha
[8] = 10 days after application, 50 g of a.i./ha
[9] = 10 days after application, 100 g of a.i./ha
[10] = 28 days after application, 50 g of a.i./ha
[11] = 28 days after application, 100 g of a.i./ha
[12] = 28 days after application, 12.5 g of a.i./ha
[13] = 28 days after application, 25 g of a.i./ha

SMILES: CCc1cc(C)cc(C2CC2)c1C1=C(O)C2CCCN2C1=O (stereo not shown) [Example I-1-a-18]
- Summer barley observed (%) [1, 6]: 10%
- Summer barley observed (%) [1, 7]: 15%
- Summer barley observed (%) [1, 8]: 25%
- Summer barley observed (%) [1, 9]: 35%
- Summer barley observed (%) [1, 10]: 10%
- Summer barley observed (%) [1, 11]: 20%
- Summer wheat observed (%), 10 days after application ([2]; 12.5 g of a.i./ha): 10%
- Summer wheat observed (%), 10 days after application ([2]; 25 g of a.i./ha): 15%
- Summer wheat observed (%), 10 days after application ([2]; 50 g of a.i./ha): 25%
- Summer wheat observed (%), 10 days after application ([2]; 100 g of a.i./ha): 40%

SMILES: CCOC1CCCC2(C1)NC(=O)C(c1c(Cl)cc(C)cc1C1CC1)=C2O (stereo not shown) [Example I-1-a-14]
- Summer barley observed (%) [1, 12]: 20%
- Summer barley observed (%) [1, 13]: 60%
- Summer barley observed (%) [1, 10]: 70%
- Summer wheat observed (%) [2, 12]: 20%
- Summer wheat observed (%) [2, 13]: 50%
- Summer wheat observed (%) [2, 10]: 75%
- Summer wheat observed (%) [2, 11]: 85%

SMILES: CCc1cc(C)cc(C2CC2)c1C1=C(O)[C@]2(CC[C@@H](OC)CC2)OC1=O [Example I-2-a-2]
- chromatographic logP [3]: 3.07

SMILES: CCOC(=O)C1(OC(=O)Cc2c(CC)cc(C)cc2C2CC2)CCC(OC)CC1 (stereo not shown) [III-1]
- chromatographic logP [3]: 5.15

SMILES: COC1CCC2(CC1)NC(=O)C(c1c(C3CC3)cc(C)cc1C1CC1)=C2O (stereo not shown) [Example I-1-a-15]
- Kill (%) after 6 d +AS + RME in each case 1000 ppm ([4]; 4 ppm): 95%
- Kill (%) after 6 d +AS 1000 ppm ([4]; 4 ppm): 15%
- Kill (%) after 6 d +RME 1000 ppm ([4]; 4 ppm): 55%
- Kill (%) after 6 d ([4]; 4 ppm): 5%
- Kill (%) after 6 d +AS + RME in each case 1000 ppm ([4]; 20 ppm): 98%
- Kill (%) after 6 d +AS 1000 ppm ([4]; 20 ppm): 95%
- Kill (%) after 6 d +RME 1000 ppm ([4]; 20 ppm): 95%
- Kill (%) after 6 d ([4]; 20 ppm): 95%

SMILES: CCc1cc(C)cc(C2CC2)c1C1=C(O)[C@]2(CC[C@H](OC)CC2)OC1=O [Example I-2-a-1]
- chromatographic logP [3]: 2.81

SMILES: COC1CCC2(CC1)OC(=O)C(c1c(C)cc(C3CC3)cc1C)=C2O (single isomer, unassigned) [Example I-2-a-3]
- logP [3]: 2.64

SMILES: CCOC(=O)OC1=C(c2c(C3CC3)cc(C)cc2C2CC2)C(=O)NC1(C)C [Example I-1-c-13]
- Summer barley observed (%) [1, 6]: 5%
- Summer barley observed (%) [1, 7]: 20%
- Summer barley observed (%) [1, 8]: 30%
- Summer wheat observed (%) [2, 6]: 20%
- Summer wheat observed (%) [2, 7]: 30%
- Summer wheat observed (%) [2, 8]: 40%

SMILES: CCc1cc(C)cc(C2CC2)c1C1=C(OC(=O)C(C)(C)C)[C@]2(CC[C@H](OC)CC2)OC1=O [Example I-2-b-1]
- chromatographic logP [3]: 5.03

SMILES: CCc1cc(C)cc(C2CC2)c1C1=C(O)C(C)(C)NC1=O [Example I-1-a-5]
- Summer barley observed (%), 10 days after application ([1]; 12.5 g of a.i./ha): 50%
- Summer barley observed (%), 28 days after application ([1]; 12.5 g of a.i./ha): 15%
- Summer barley observed (%), 10 days after application ([1]; 25 g of a.i./ha): 70%
- Summer barley observed (%), 28 days after application ([1]; 25 g of a.i./ha): 25%
- Summer barley observed (%), 10 days after application ([1]; 50 g of a.i./ha): 80%
- Summer barley observed (%), 28 days after application ([1]; 50 g of a.i./ha): 40%
- Summer wheat observed (%), 10 days after application ([2]; 6.25 g of a.i./ha): 50%
- Summer wheat observed (%), 28 days after application ([2]; 6.25 g of a.i./ha): 10%
- Summer wheat observed (%), 10 days after application ([2]; 12.5 g of a.i./ha): 60%
- Summer wheat observed (%), 28 days after application ([2]; 12.5 g of a.i./ha): 40%
- Summer wheat observed (%), 10 days after application ([2]; 25 g of a.i./ha): 70%
- Summer wheat observed (%), 28 days after application ([2]; 25 g of a.i./ha): 60%
- Summer wheat observed (%), 10 days after application ([2]; 50 g of a.i./ha): 70%
- Summer wheat observed (%), 28 days after application ([2]; 50 g of a.i./ha): 75%

SMILES: COC1CCC2(CC1)NC(=O)C(c1c(C)cc(C)cc1C1CC1)=C2O (stereo not shown) [Example I-1-a-7]
- Summer barley observed (%) [1, 6]: 10%
- Summer barley observed (%) [1, 7]: 50%
- Summer barley observed (%) [1, 8]: 60%
- Summer wheat observed (%) [2, 12]: 30%
- Summer wheat observed (%) [2, 13]: 60%
- Summer wheat observed (%) [2, 10]: 70%
- Summer wheat observed (%) [2, 11]: 80%
- Kill (%) after 6 d +AS + RME in each case 1000 ppm ([5]; + AS + RME in each case 1000 ppm): 99%
- Kill (%) after 6 d +AS 1000 ppm ([5]; + ammonium sulphate 1000 ppm): 65%
- Kill (%) after 6 d +RME 1000 ppm ([5]; + rapeseed oil methyl ester 1000 ppm): 75%
- Kill (%) after 6 d ([5]; no additive): 55%

SMILES: COC1CCC2(CC1)OC(=O)C(c1c(C)cc(C3CC3)cc1C)=C2O (single isomer, unassigned) [Example I-2-a-4]
- logP [3]: 2.88

SMILES: CCCCOC1CCCC2(C1)NC(=O)C(c1c(Cl)cc(C)cc1C1CC1)=C2O (stereo not shown) [Example I-1-a-12]
- Summer wheat observed (%), 10 days after application ([2]; 6.25 g of a.i./ha): 10%
- Summer wheat observed (%), 10 days after application ([2]; 12.5 g of a.i./ha): 40%
- Summer wheat observed (%), 10 days after application ([2]; 25 g of a.i./ha): 50%
- Summer wheat observed (%) ([2]; 10 days after application, 6.25 g of a.i./ha): 30%
- Summer wheat observed (%) [2, 6]: 50%
- Summer wheat observed (%) [2, 7]: 60%
- Summer wheat observed (%) [2, 8]: 60%
- Summer wheat observed (%) ([2]; 28 days after application, 6.25 g of a.i./ha): 5%
- Summer wheat observed (%) [2, 12]: 25%
- Summer wheat observed (%) [2, 13]: 65%
- Summer wheat observed (%) [2, 10]: 65%

SMILES: CCOC1CCCC2(CC1)NC(=O)C(c1c(C)cc(C)cc1C1CC1)=C2O (stereo not shown) [Example I-1-a-9]
- Summer wheat observed (%) [2, 6]: 60%
- Summer wheat observed (%) [2, 7]: 65%
- Summer wheat observed (%) [2, 13]: 50%

SMILES: CCOC(=O)OC1=C(c2c(C)cc(C)cc2C2CC2)C(=O)NC12CCC(OC)CC2 (single isomer, unassigned) [Example I-1-c-7]
- Summer barley observed (%) [1, 6]: 10%
- Summer barley observed (%) [1, 7]: 40%
- Summer barley observed (%) [1, 8]: 60%
- Summer barley observed (%) [1, 9]: 90%
- Summer barley observed (%) [1, 10]: 50%
- Summer barley observed (%) [1, 11]: 95%
- Summer wheat observed (%) [2, 6]: 20%
- Summer wheat observed (%) [2, 7]: 60%
- Summer wheat observed (%) [2, 12]: 10%
- Summer wheat observed (%) [2, 13]: 20%
- Summer wheat observed (%) [2, 10]: 80%

SMILES: Cc1cc(C)c(C2=C(O)C(C)(C)NC2=O)c(C2CC2)c1 [Example I-1-a-8]
- Summer wheat observed (%) [2, 7]: 25%
- Summer wheat observed (%) [2, 8]: 30%
- Summer wheat observed (%) [2, 9]: 30%

SMILES: Cc1cc(C2CC2)cc(C)c1C1=C(O)C2(CCOCC2)OC1=O [Example I-2-a-5]
- logP [3]: 2.36

— patent publication US8541617B2, “Cycloalkylphenyl substituted cyclic ketoenols” (Bayer Cropscience AG, priority 2006, dated 2013)
